Results: patent US20180333491A1 (Sinotau Pharmaceuticals Group, priority 2015, published 2018)

What was measured:
Assay in all cases: Cytotoxicity on human tumor cell lines (ATPLite)
Format in all cases: cell-based
BXPC3 = system: BXPC3
Experimental: (§1) Eighteen human tumor cell lines were treated with 62.5, 125, 250, 500, or 1000 ng/mL HuCTB006 or different concentrations of chemotherapy drugs, which act as positive controls. […] The culture medium for SK-Hep-1, HepG2, HCT116, SW480, WiDr (1×NEAA), MIA-PaCa-2 (2.5% Horse serum) MDA-MB-231 (1 mM NaPyr, 1×MEM-NEAA, 1×MEM VITAMIN) was DMEM. The culture medium for COLO205, BXPC3 (2 mM glutamin, 10 mM HEPES), Panc2.03 (15FBS, 1 mM NaPyr, 1×MEM-NEAA, […], 10 mM HEPES), H2122, OVCAR3 (1 mM NaPyr, 10 ug/ml human insulin, 10 mM HEPES, 2.5 g/L glucose), Molt-4 (HEPES, 2.5 g/l glocose), Jurkat (HEPES, 2.5 g/l glocose) was RPMI-1640, the culture medium for SK-MES-1 was Eagle's MEM, the culture medium for 2-LMP and DY36T2 was IMEM, and the culture medium for SUM102 (5 ug/ml insulin) was F-12K. The cell viability was determined by ATPLite Assay Kit. If the IC50 value was lower than 62.5 ng/mL, the cells were treated with higher concentration of CTB006 in the second round of experiments to determine IC50 value.

COLO205 = system: COLO205
Experimental: as §1

Jurkat = system: Jurkat
Experimental: as §1

MDA-MB-231 = system: MDA-MB-231
Experimental: as §1

Measured: IC50

HuCTB006: Monospecific humanized chimeric monoclonal antibody directed to TRAIL-R2 receptor; heavy chain SEQ ID NO: 16, light chain SEQ ID NO: 14
~0.01 µg/mL: all assays above
